Assay results published in publication PMC7150891, “Mertansine Inhibits mRNA Expression and Enzyme Activities of Cytochrome P450s and Uridine 5′-Diphospho-Glucuronosyltransferases in Human Hepatocytes and Liver Microsomes” (Pharmaceutics, 2020).
Read-outs that look alike come from different tables or passages of the source.

How the values were obtained:
[1] = tested on: UGT1A1 mRNA; assay: UGT1A1 mRNA level in human hepatocytes after 48 h treatment (RT-PCR); conditions: human, IC50, suppression of UGT1A1 mRNA expression, 1.25–2500 nM
[2] = tested on: CYP2B6; assay: CYP2B6-catalyzed bupropion hydroxylase activity in human hepatocytes after 48 h treatment
Experimental: (§1) Samples were incubated for 48 h at 37 °C in 5% CO2, and the medium was exchanged with 250 μL of fresh medium containing drugs or the vehicle every 24 h.
(§2) The effects of mertansine on CYP1A2, CYP2B6, and CYP3A4 activities were evaluated. […] Mixtures were vortexed for 2 min and then centrifuged at 13,000 g for 4 min at 4 °C. The supernatant (40 µL) was diluted with 60 µL of deionized water and then mixed for 2 min by vortexing. An aliquot (5 µL) was analyzed using LC-MS/MS [37], and CYP1A2, CYP2B6, and CYP3A4 enzyme activities were expressed as formation rates (pmol/million cells/min).
(§3) The percentage changes in enzymatic activities were calculated as (CYP activity with test compound treatment/CYP activity with vehicle control treatment) × 100. The IC50 (the concentration of the inhibitor needed for half-maximal inhibition) values were calculated using SigmaPlot ver. […] Ki (the inhibition constant) and the inhibition mode of UGT1A1, UGT1A3, and UGT1A4 activities were determined using Enzyme Kinetics ver. 1.1 (Systat Software, Inc.).

[3] = tested on: CYP3A4
Experimental: as §1, §2, §3

[4] = design: method as in PMID 25048520, PMID 22752008; conditions: up to 1 µM; cited from earlier work
[5] = tested on: UGT1A4 mRNA; assay: UGT1A4 mRNA level in human hepatocytes after 48 h treatment (RT-PCR); conditions: for IC50: read-out: IC50, suppression of UGT1A4 mRNA expression, 1.25–2500 nM
[6] = human hepatocytes Lot 319, 48 h
[7] = human hepatocytes Lot 321, 48 h
[8] = human hepatocytes Lot 361, 48 h
[9] = mertansine 48 h, three human hepatocytes

COc1cc2cc(c1Cl)N(C)C(=O)CC(OC(=O)C(C)N(C)C(=O)CCS)C1(C)OC1C(C)C1CC(O)(NC(=O)O1)C(OC)C=CC=C(C)C2 (stereo not shown) [mertansine, Mertansine]
IC50 at 48 h ([1]; Mean ± SD of three human hepatocyte lots, 48 h): 857 ± 782 nM | IC50 at 48 h [1, 6]: 784 nM | IC50 at 48 h [1, 7]: 113 nM | IC50 at 48 h [1, 8]: 1670 nM | Mean decrease of CYP2B6-mediated bupropion hydroxylase activity ([2]; highest concentration (2500 nM), 48 h, mean of three human hepatocytes): 63.5% | Decrease of CYP2B6-mediated bupropion hydroxylase activity compared to vehicle [2, 9]: 23.9–93.1% | Mean decrease of CYP3A4-mediated midazolam 1′-hydroxylase activity ([3]; human, hepatocytes): 39.7% | Decrease of CYP3A4-mediated midazolam 1′-hydroxylase activity compared to vehicle [3, 9]: 30.8–62.7% | Induction potential [4]: no induction potential | IC50 at 48 h ([5]; human): > 2500 nM | IC50 [5, 6]: > 2500 nM | IC50 [5, 7]: > 2500 nM | IC50 [5, 8]: > 2500 nM
